The results in this text go back to PMC8717366, “Synthesis and Pharmacological Characterization of Visabron, a Backbone Cyclic Peptide Dual Antagonist of α4β1 (VLA-4)/α9β1 Integrin for Therapy of Multiple Sclerosis” (JACS Au, 2021).

Numbered stars: 1 amine (or outer) side, 2 acyl side, 3 side chain; on linkers, the order of the positions; unused ones are H or OH. Bridge positions count the residues as written; N and C are the ends. Square brackets hold non-standard residues; d marks the D form. Peptide text beside a SMILES is read from it. CO = O=C([*:1])[*:2]; Nlys = NCCCCNCC(=O)O

Assay type in all cases: biochemical
The target in one data set is T1, C-Raf (Homo sapiens, UniProt P04049, Y340D/Y341D).
T1 construct: purchased Thermo PV3805
Kind of data set: PhosphoSens CSox-based kinase assay, C-Raf. As to conditions: 1 mM, but not 0.1 mM; Figure 7. The method, then:
(§1) Kinase activity was measured using the PhosphoSenstechnology (AssayQuant Technologies Inc., Marlborough, MA) as detailed in the Supporting Information. […]
(§2) Visabron c (4-4) safety by in vitro evaluation using PhosphoSens - CSox based kinase assays:
(§3) A powerful method was used to measure the activity of recombinant protein kinases using a homogeneous and continuous (kinetic) format, where the level of chelation-enhanced fluorescence (CHEF) that is directly proportional to the amount of phosphorylated, real-time sensors consisting of sulfonamido-oxine (Sox) chromophore, linked to a peptide or protein substrates of selective kinases 6. […]
(§4) Kinase activity measurements: Kinase activity was measured continuously using the PhosphoSens® technology (AssayQuant Technologies Inc., Marlborough, MA) according to the manufacturers’ recommendations. This one-step homogeneous assay format uses chelation -enhanced fluorescence via optimized substrate sensors containing the unnatural fluorogenic amino -acid Sox. […]
(§5) Final reaction conditions : Protein kinase activity was determined in 54 mM HEPES, pH 7.5, 1 mM ATP, 1.2 mM DTT, 0.012% Brij-35, 0.52 mM EGTA, 10 mM MgCl2, 1% glycerol, 0.2mg/ml BSA, and 15 μM Sox -based sensor. […]

The next data set has as its target T2, JAK3 (Homo sapiens, UniProt P52333).
T2 construct: purchased Carna 08-046
Briefly: PhosphoSens CSox-based kinase assay, JAK3. As to conditions: 1 mM, but not 0.1 mM; Figure 7. The method, then: as §1, §2, §3, §4, §5

The next data set has as its target T3, Lck kinase (Homo sapiens, UniProt P06239).
T3 construct: purchased Eurofins Cerep-Panlabs (contract screen) SafetyScreen44
Kind of data set: SafetyScreen44 enzyme inhibition, Lck kinase. The method, then:
Screening of potentially significant off-target effects to binding and enzyme targets was performed via SafetyScreen44 offered by Eurofins Cerep-Panlabs. Visabron c (4–4) was tested at 1 and 0.1 mM. Compound binding was calculated as the percentage of inhibition of the binding of a radioactively labeled ligand specific for each target. The compound enzyme inhibitory effect was calculated as the percentage of inhibition of control enzyme activity. Results showing inhibition higher than 40% were considered to represent significant effects of the tested compound. Results showing inhibition lower than 25% as obtained with 0.1 mM Visabron c (4–4) were not considered significant and were mostly attributable to the variability of the signal around the control level. In each experiment, the respective reference compound was tested concurrently with visabron c (4–4), and the data were compared with historical values determined at Eurofins. The experiment was statistically accepted in accordance with the Eurofins validation standard operating procedure.

As usually defined, the inhibition is how much of the control response was suppressed.

T3 sequence (P06239 whole entry): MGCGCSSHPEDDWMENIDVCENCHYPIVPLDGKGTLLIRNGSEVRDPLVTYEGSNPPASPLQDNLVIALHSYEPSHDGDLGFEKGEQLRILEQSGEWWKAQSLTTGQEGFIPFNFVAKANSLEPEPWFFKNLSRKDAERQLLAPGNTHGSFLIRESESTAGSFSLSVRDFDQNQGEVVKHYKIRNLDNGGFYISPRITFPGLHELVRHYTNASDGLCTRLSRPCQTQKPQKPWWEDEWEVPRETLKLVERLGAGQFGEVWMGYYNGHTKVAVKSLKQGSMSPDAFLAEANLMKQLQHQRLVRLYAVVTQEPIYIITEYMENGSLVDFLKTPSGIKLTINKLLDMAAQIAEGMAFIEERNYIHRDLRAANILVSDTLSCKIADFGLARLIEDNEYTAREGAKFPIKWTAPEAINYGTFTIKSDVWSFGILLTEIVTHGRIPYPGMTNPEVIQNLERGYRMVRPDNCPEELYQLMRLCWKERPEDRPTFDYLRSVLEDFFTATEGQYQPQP
T2 sequence (P52333 whole entry): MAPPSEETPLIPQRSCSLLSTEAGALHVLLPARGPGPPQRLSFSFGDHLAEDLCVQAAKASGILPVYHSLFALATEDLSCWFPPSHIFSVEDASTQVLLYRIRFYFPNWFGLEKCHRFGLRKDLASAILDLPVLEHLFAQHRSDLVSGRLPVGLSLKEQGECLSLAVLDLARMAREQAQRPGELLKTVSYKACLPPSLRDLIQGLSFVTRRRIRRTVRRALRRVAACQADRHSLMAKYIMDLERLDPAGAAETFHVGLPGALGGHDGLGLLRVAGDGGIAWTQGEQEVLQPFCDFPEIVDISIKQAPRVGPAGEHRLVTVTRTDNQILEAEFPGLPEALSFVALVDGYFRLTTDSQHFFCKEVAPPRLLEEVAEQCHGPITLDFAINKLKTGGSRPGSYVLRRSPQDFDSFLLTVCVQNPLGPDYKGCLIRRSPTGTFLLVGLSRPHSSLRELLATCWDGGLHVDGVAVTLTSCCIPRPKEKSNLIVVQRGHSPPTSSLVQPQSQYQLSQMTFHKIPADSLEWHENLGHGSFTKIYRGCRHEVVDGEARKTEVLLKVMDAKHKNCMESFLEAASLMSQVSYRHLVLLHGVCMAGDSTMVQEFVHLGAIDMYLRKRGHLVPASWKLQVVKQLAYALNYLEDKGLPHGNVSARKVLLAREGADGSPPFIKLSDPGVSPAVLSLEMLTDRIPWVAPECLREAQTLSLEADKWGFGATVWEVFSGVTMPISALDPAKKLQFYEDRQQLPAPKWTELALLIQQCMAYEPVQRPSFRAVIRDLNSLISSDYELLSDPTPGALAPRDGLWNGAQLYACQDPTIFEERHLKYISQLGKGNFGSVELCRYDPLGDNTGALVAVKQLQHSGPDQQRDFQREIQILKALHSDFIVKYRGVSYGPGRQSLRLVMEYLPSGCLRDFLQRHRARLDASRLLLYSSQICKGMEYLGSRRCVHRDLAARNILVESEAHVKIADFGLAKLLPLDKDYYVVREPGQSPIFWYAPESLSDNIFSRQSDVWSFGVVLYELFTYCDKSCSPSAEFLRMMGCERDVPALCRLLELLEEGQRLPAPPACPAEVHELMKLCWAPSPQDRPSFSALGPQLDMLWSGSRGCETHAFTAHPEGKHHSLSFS
T1 sequence (P04049 whole entry Y340D/Y341D): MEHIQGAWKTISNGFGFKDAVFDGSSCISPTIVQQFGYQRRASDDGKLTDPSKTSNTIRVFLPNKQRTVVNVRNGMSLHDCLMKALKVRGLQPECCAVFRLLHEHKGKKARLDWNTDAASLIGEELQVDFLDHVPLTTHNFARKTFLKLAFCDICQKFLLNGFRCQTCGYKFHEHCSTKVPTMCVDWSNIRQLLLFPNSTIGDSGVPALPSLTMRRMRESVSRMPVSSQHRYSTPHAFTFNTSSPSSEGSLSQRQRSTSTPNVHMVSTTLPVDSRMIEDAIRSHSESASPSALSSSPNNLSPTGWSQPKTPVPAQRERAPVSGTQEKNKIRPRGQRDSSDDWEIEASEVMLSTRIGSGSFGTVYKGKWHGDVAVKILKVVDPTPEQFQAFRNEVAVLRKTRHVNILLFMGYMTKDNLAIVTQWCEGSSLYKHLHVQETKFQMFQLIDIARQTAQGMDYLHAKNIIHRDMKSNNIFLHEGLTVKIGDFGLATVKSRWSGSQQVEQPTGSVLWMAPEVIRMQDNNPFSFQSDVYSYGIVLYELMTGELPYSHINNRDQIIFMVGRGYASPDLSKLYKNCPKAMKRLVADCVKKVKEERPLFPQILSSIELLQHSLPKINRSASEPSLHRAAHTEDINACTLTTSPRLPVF

With `CSCC[C@@H]1NC(=O)[C@H]([C@@H](C)O)NC(=O)CN(C(=O)[C@@H](N)CCCCN)CCCCNC(=O)NCCCCN(CC(=O)N[C@@H](CC(C)C)C(N)=O)C(=O)[C@H](CC(=O)O)NC(=O)[C@H](CC(C)C)NC1=O` [visabron c (4–4)] (H-K[Nlys]TMLD[Nlys]L-NH2; linker 2-7 via CO), the inhibition at 1000 µM at C-Raf and on JAK3 was 25 to 40% in each case. For the same molecule, the “Inhibitory effect on Lck” value on Lck kinase (100 μM, data not shown) is “not observed”. Moreover, the “Inhibition of Lck kinase activity” value at Lck kinase (1 mM, Figure 6) was “strongly inhibited”.
